Test results as given in ChEMBL document CHEMBL4138222, “Cytotoxicity, molecular modeling, cell cycle arrest, and apoptotic induction induced by novel tetrahydro-[1,2,4]triazolo[3,4-a]isoquinoline chalcones” (Eur J Med Chem, 2018).
Converted amounts (≈) assume the structure as drawn. The source made the active and inactive calls. No cut-off for these calls is given here.

How the values were obtained:
[1] = Cytotoxicity against human HFB4 cells assessed as inhibition of cell proliferation after 48 hrs by MTT assay; format: cell-based
HepG2 = experiment: Cytotoxicity against human HepG2 cells assessed as inhibition of cell proliferation after 48 hrs by MTT assay; format: functional, cell-based; conditions: HepG2, 48 h
A549 = experiment: Cytotoxicity against human A549 cells assessed as inhibition of cell proliferation after 48 hrs by MTT assay; format: functional, cell-based; conditions: A549, 48 h
MCF7 [2] = experiment: Cytotoxicity against human MCF7 cells assessed as inhibition of cell proliferation after 48 hrs by MTT assay; format: functional, cell-based; conditions: MCF7, 48 h
HCT-116 = experiment: Cytotoxicity against human HCT116 cells assessed as inhibition of cell proliferation after 48 hrs by MTT assay; format: functional, cell-based; conditions: HCT-116, 48 h
MCF7 [3] = experiment: Downregulation of MMP1 mRNA expression in human MCF7 cells at IC50 after 48 hrs by RT-PCR method; format: functional, cell-based
MCF7 [4] = experiment: Downregulation of BCL-2 mRNA expression in human MCF7 cells at IC50 after 48 hrs by RT-PCR method; format: functional, cell-based
MCF7 [5] = experiment: Cell cycle arrest in human MCF7 cells assessed as accumulation at G0/G1 phase at 50.05 ug/ml after 48 hrs by propidium iodide staining-based flow cytometric method (reference value: 71.13%); format: functional
MCF7 [6] = experiment: Cell cycle arrest in human MCF7 cells assessed as accumulation at G2/M phase at 50.05 ug/ml after 48 hrs by propidium iodide staining-based flow cytometric method (reference value: 4.82%); format: functional
MCF7 [7] = experiment: Upregulation of p53 mRNA expression in human MCF7 cells at IC50 after 48 hrs by RT-PCR method; format: functional, cell-based
MCF7 [8] = experiment: Upregulation of caspase-3 mRNA expression in human MCF7 cells at IC50 after 48 hrs by RT-PCR method; format: functional, cell-based
MCF7 [9] = experiment: Induction of apoptosis in human MCF7 cells assessed as cell aggregates at 50.05 ug/ml after 48 hrs by propidium iodide staining-based flow cytometric method (reference value: 4.49%); format: functional
MCF7 [10] = experiment: Cell cycle arrest in human MCF7 cells assessed as accumulation at S phase at 50.05 ug/ml after 48 hrs by propidium iodide staining-based flow cytometric method (reference value: 23.5%); format: functional
MCF7 [11] = experiment: Induction of apoptosis in human MCF7 cells assessed as cell debris at 50.05 ug/ml after 48 hrs by propidium iodide staining-based flow cytometric method (reference value: 2.75%); format: functional
MCF7 [12] = experiment: Induction of apoptosis in human MCF7 cells at 50.05 ug/ml after 48 hrs by propidium iodide staining-based flow cytometric method (reference value: 0.55%); format: functional
MCF7 [13] = experiment: Induction of apoptosis in human MCF7 cells assessed as induction of caspase-3 activity by measuring caspase-3 levels at 50.05 ug/ml after 24 hrs ELISA (reference value: 0.0197 ng/ml); format: functional
MCF7 [14] = experiment: Downregulation of CDK4 mRNA expression in human MCF7 cells at IC50 after 48 hrs by RT-PCR method; format: functional, cell-based
MCF7 [15] = experiment: Upregulation of Bax mRNA expression in human MCF7 cells at IC50 after 48 hrs by RT-PCR method; format: functional, cell-based
MCF7 [16] = experiment: Induction of apoptosis in human MCF7 cells assessed as cell aggregates at 27.15 ug/ml after 48 hrs by propidium iodide staining-based flow cytometric method (reference value: 4.49%); format: functional
MCF7 [17] = experiment: Induction of apoptosis in human MCF7 cells at 27.15 ug/ml after 48 hrs by propidium iodide staining-based flow cytometric method (reference value: 0.55%); format: functional
MCF7 [18] = experiment: Cell cycle arrest in human MCF7 cells assessed as accumulation at S phase at 27.15 ug/ml after 48 hrs by propidium iodide staining-based flow cytometric method (reference value: 23.5%); format: functional
MCF7 [19] = experiment: Cell cycle arrest in human MCF7 cells assessed as accumulation at G0/G1 phase at 27.15 ug/ml after 48 hrs by propidium iodide staining-based flow cytometric method (reference value: 71.13%); format: functional
MCF7 [20] = experiment: Induction of apoptosis in human MCF7 cells assessed as cell debris at 27.15 ug/ml after 48 hrs by propidium iodide staining-based flow cytometric method (reference value: 2.75%); format: functional
MCF7 [21] = experiment: Cell cycle arrest in human MCF7 cells assessed as accumulation at G2/M phase at 27.15 ug/ml after 48 hrs by propidium iodide staining-based flow cytometric method (reference value: 4.82%); format: functional
MCF7 [22] = experiment: Induction of apoptosis in human MCF7 cells assessed as induction of caspase-3 activity by measuring caspase-3 levels at 27.15 ug/ml after 24 hrs ELISA (reference value: 0.0197 ng/ml); format: functional

Row | Compound | IC50 [1] [µg/mL] | IC50 (HepG2) [µg/mL] | IC50 (A549) [µg/mL] | IC50 (MCF7 [2]) [µg/mL] | IC50 (HCT-116) [µg/mL] | also measured
1 | COc1ccc(/C=C/C(=O)C2=NN(c3ccccc3)C3c4cc(OC)c(OC)cc4CCN23)cc1 (stereo not drawn) | 115 (≈ 245 µM) | 218 (≈ 464 µM) | 190 (≈ 404 µM) | 68.5 (≈ 146 µM) | 243 (≈ 518 µM) | –
2 | COc1cc2c(cc1OC)C1N(CC2)C(C(=O)/C=C/c2ccccc2)=NN1c1ccccc1 (stereo not drawn) | 52.1 (≈ 119 µM) | 139 (≈ 317 µM) | 78.1 (≈ 178 µM) | 61.4 (≈ 140 µM) | 625 (≈ 1420 µM) | –
3 | COc1cc2c(cc1OC)C1N(CC2)C(C(=O)/C=C/c2ccc3c(c2)OCO3)=NN1c1ccccc1 (stereo not drawn) | 51.9 (≈ 107 µM) | 122 (≈ 253 µM) | 201 (≈ 417 µM) | 225 (≈ 466 µM) | 187 (≈ 388 µM) | –
4 | COc1cc2c(cc1OC)C1N(CC2)C(C(=O)/C=C/c2ccc(Cl)cc2)=NN1c1ccccc1 (stereo not drawn) | 57.2 (≈ 121 µM) | 141 (≈ 297 µM) | 156 (≈ 329 µM) | 151 (≈ 319 µM) | 622 (≈ 1310 µM) | –
5 | O=c1[nH]cc(F)c(=O)[nH]1 [FLUOROURACIL] | – | 237 (≈ 1820 µM) | 66 (≈ 507 µM) | 178 (≈ 1370 µM) | 201 (≈ 1550 µM) | –
6 | COc1cc2c(cc1OC)C1N(CC2)C(C(=O)/C=C/c2ccc([N+](=O)[O-])cc2)=NN1c1ccccc1 (stereo not drawn) | 245 (≈ 506 µM) | 478 (≈ 986 µM) | 207 (≈ 427 µM) | 50 (≈ 103 µM) | 114 (≈ 236 µM) | Activity (MCF7 [3]): Active; Activity (MCF7 [4]): Active; Activity (MCF7 [5]): 74.52%; Activity (MCF7 [6]): 0%; Activity (MCF7 [7]): Active; Activity (MCF7 [8]): Active; Activity (MCF7 [9]): 4.85%; Activity (MCF7 [10]): 17.06%; Activity (MCF7 [11]): 3.88%; Activity (MCF7 [12]): 8.72%; Activity (MCF7 [13]): 0.3573 ng/mL; Activity (MCF7 [14]): Active; Activity (MCF7 [15]): Active
7 | COc1cc2c(cc1OC)C1N(CC2)C(C(=O)/C=C/c2cc(OC)c(OC)c(OC)c2)=NN1c1ccccc1 (stereo not drawn) | – | 107 (≈ 202 µM) | 156 (≈ 295 µM) | 27.1 (≈ 51.3 µM) | – | Activity (MCF7 [3]): Active; Activity (MCF7 [16]): 7.92%; Activity (MCF7 [4]): Active; Activity (MCF7 [7]): Active; Activity (MCF7 [8]): Active; Activity (MCF7 [17]): 17.28%; Activity (MCF7 [18]): 16.01%; Activity (MCF7 [19]): 66.11%; Activity (MCF7 [20]): 5.71%; Activity (MCF7 [21]): 0.6%; Activity (MCF7 [14]): Active; Activity (MCF7 [15]): Active; Activity (MCF7 [22]): 0.4108 ng/mL
